The text below walks through data of US7235557B2, “Compounds and their uses” (MGI GP, Inc., priority 2000, dated 2007).

SMILES strings stand for the structures. Several values for one entry are separate records, joined by “and”; a condition that tells them apart may be missing. Equal entries are not always repeated.

PARP, sequence (P09874 whole entry): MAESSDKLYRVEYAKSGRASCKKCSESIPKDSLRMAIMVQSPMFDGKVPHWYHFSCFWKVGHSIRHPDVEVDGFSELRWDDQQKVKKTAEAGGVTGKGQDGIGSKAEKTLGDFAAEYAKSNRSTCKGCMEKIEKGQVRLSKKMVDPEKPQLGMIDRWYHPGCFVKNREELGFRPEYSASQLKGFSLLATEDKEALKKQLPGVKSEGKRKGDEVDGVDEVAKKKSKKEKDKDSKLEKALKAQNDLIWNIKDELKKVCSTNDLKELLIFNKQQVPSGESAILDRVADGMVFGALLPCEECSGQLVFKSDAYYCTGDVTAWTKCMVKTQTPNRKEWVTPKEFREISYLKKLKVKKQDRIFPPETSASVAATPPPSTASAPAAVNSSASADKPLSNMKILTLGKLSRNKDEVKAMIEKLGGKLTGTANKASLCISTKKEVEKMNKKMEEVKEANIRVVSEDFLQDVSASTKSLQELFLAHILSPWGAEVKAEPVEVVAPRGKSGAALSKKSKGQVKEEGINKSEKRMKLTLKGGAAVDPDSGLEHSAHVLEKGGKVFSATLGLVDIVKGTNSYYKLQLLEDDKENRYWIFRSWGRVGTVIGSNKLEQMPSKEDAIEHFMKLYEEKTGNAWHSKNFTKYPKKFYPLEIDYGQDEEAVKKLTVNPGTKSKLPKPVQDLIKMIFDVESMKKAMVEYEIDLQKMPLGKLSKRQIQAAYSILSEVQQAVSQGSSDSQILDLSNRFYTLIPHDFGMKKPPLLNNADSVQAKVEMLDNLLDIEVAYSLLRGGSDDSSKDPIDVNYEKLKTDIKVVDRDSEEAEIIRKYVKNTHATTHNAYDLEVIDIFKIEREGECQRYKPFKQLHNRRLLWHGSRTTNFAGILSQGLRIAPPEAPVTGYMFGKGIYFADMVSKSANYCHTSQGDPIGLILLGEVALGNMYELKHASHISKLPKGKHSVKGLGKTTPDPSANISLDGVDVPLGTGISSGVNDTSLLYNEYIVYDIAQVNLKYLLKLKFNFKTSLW

One assay deals with T1, purified recombinant human PARP (Homo sapiens, UniProt P09874).
T1 construct: purchased Trevigan (Gaithersburg, Md.)
T1 sequence (P09874 whole entry): as above
As to the kind of experiment: PARP enzyme assay (IC50). It counts as biochemical. The note with it: IC50 (μM), approximate IC50 values, [3H]NAD. The procedure:
The reaction is initiated by adding enzyme and incubating the mixture at 25° C. After 2 minutes of incubation, the reaction is terminated by adding 500 microliters of ice cold 30% (w/v) trichloroacetic acid. The precipitate formed is transferred onto a glass fiber filter Packard Unifilter-GF/C) and washed three times with 70% ethanol. After the filter is dried, the radioactivity is determined by scintillation counting.
By IC50 is commonly meant the concentration that inhibits the measured activity by half. On to `O=C1NCCn2c(Cc3ccccc3)nc3cccc1c32`, for which the IC50 stood at 0.108 µM.

Staying with this assay, now noted: approximate IC50 values, [3H]NAD, read-out: IC50.
For the compound `O=C1NCCn2c(-c3ccc(Br)cc3)nc3cccc1c32`, the IC50 amounted to 0.054 µM.
The same measure, in the same setting: for `CCN(CC)Cc1nc2cccc3c2n1CCNC3=O` the value was 0.535 µM; for `O=C1NCCn2c(CN3CCN(Cc4ccccc4)CC3)nc3cccc1c32`, 2.19 µM; for `O=C(O)c1ccc(-c2nc3cccc4c3n2CCNC4=O)cc1`, 1.19 µM.
Consider `O=c1[nH]c2ccc(O)nc2c2ccccc12`, for which the IC50 was 0.114 µM.
Still for that read-out and setting: for `Nc1cnc2c(c1)[nH]c(=O)c1ccccc12` the value was 0.18 µM; for `O=C1NCCn2c(CN3CCCCC3)nc3cccc1c32`, 0.801 µM; for `COc1cc2c(cc1OC)CN(Cc1nc3cccc4c3n1CCNC4=O)CC2`, 0.713 µM.
On the same count and under the same terms, under `O=C1NCCn2c(-c3cccc(C(=O)N4CCN(Cc5ccc6c(c5)OCO6)CC4)c3)nc3cccc1c32` stands 0.635 µM.
On the same count and under the same terms, under `CC(C)(C)OC(=O)N1CCN(C(=O)c2cccc(-c3nc4cccc5c4n3CCNC5=O)c2)CC1` stands 0.583 µM; under `COc1ccc2c(c1)c(=O)[nH]c1cccnc12`, 4.15 µM.
Consider `CCOC(=O)[C@@H]1C[C@H]1c1nc2cccc3c2n1CCNC3=O`, for which the IC50 was found to be 0.108 µM.
For `CN(C)CCCN(C)C(=O)c1cccc(-c2nc3cccc4c3n2CCNC4=O)c1`, the IC50 is 0.199 µM.
Still for that read-out and setting: for `CN(C)CCCOc1ccc(-c2nc3cccc4c3n2CCNC4=O)cc1` the value was 0.237 µM; for `O=c1[nH]c2ccc(N3CCN(CC4CCCO4)CC3)nc2c2ccccc12` (stereo not shown), 0.179 µM; for `O=C(NCCN1CCCC1)c1cccc(-c2nc3cccc4c3n2CCNC4=O)c1`, 0.321 µM.
The same measure, in the same setting: under `O=C1NCCN2CCc3cccc1c32` stands 2.41 µM; under `CN(C)CCN(C)Cc1nc2cccc3c2n1CCNC3=O`, 0.288 µM.
Take `O=c1[nH]c2cc(Cl)cnc2c2ccccc12`: the IC50 is 0.292 µM.
With `O=C1NCCn2c(-c3ccc4ccccc4n3)nc3cccc1c32`, the IC50 is 0.299 µM.
`O=C1NN=Cc2c[nH]c3cccc1c23`: the IC50 came to 0.018 µM.
On to `O=C1NCC(c2ccccc2)c2c[nH]c3cccc1c23` (stereo not shown), for which the half-inhibitory concentration (IC50) was 0.176 µM.
Still for that read-out and setting: under `CC(C)(C)OC(=O)n1cc2c3c(cccc31)C(=O)NCC2` stands 20 µM; under `O=C1NCCn2c(-c3ccc(-c4ccc(Cl)cc4)o3)nc3cccc1c32`, 0.96 µM.
On the same count and under the same terms, for `O=C1NCCn2c(CN3CCN(c4ccccc4)CC3)nc3cccc1c32` the value was 1.9 µM; for `CCN(CC)CCNC(=O)c1cccc(-c2nc3cccc4c3n2CCNC4=O)c1`, 0.449 µM; for `CN(Cc1nc2cccc3c2n1CCNC3=O)c1ccccc1`, 0.28 µM.
As for `O=C1NCCn2c(CN3CC4CC3CN4Cc3ccccc3)nc3cccc1c32` (stereo not shown), the 50% inhibitory concentration (IC50) turned out to be 0.115 µM.
Same read-out and setting: under `O=C1NCCn2c(-c3ccc4ccccc4c3)nc3cccc1c32` stands 0.032 µM.
With `COCc1nc2cccc3c2n1CCNC3=O`, the half-inhibitory concentration (IC50) was 0.227 µM.
On the same count and under the same terms, for `COc1ccc2[nH]c(=O)c3ccccc3c2n1` the value was 0.216 µM; for `O=c1[nH]c2ccc(Cl)nc2c2ccccc12`, 2.1 µM.
Turning to `O=C1CCN(Cc2nc3cccc4c3n2CCNC4=O)CC1`, the IC50 was determined as 0.329 µM.
Still for that read-out and setting: under `CN(CCC1CCCN1C)C(=O)c1cccc(-c2nc3cccc4c3n2CCNC4=O)c1` (stereo not shown) stands 1.24 µM; under `CN1CCN(CC2=NNC(=O)c3cccc4[nH]cc2c34)CC1`, 0.037 µM; under `O=C1NCCn2c(-c3cccnc3)nc3cccc1c32`, 0.168 µM.
For `O=C1NN=C(CN2CCN(c3ccccn3)CC2)c2c[nH]c3cccc1c23` [drawing 105], the IC50 is 0.025 µM.
The same measure, in the same setting: under `O=C1NCCn2c(-c3cc(O)cc(O)c3)nc3cccc1c32` stands 0.089 µM.

The test system of another assay is focal cerebral ischemia. As to the kind of experiment: Focal cerebral ischemia (MCA cauterization with temporary bilateral CCA occlusion), infarct volume. It counts as in vivo, male Long-Evans rats. The note with it: 5 mg/kg i.p. 2 h before and 2 h after MCA occlusion; 24 h; mean±SD; control 165.2±34.0. As for the experimental part: Focal cerebral ischemia is produced by cauterization of the right distal MCA (middle cerebral artery) with bilateral temporary common carotid artery occlusion in male Long-Evans rats for 90 minutes. All procedures performed on the animals are approved by the University Institutional Animal Care and Use Committee of the University of Pennsylvania. A total of 42 rats (weights: 230–340 g) obtained from Charles River were used in this study. The animals fasted overnight with free access to water prior to the surgical procedure.
Two hours prior to MCA occlusion, varying amounts (control, n=14; 5 mg/kg, n=7; 10 mg/kg, n=7; 20 mg/kg, n=7; and 40 mg/kg, n=7) of the compound, 3,4-dihydro-5-[4-(1-piperidinyl)-butoxy]-1(2H)-isoquinolinone (“DPQ”) were dissolved in dimethyl sulfoxide (DMSO) using a sonicator. A volume of 1.28 ml/kg of the resulting solution was injected intraperitoneally into […].
Focal cerebral ischemia was produced by cauterization of the distal portion of the right MCA with bilateral temporary common carotid artery (CCA) occlusion by the procedure of Chen et al., “A Model of Focal Ischemic Stroke in the Rat: Reproducible Extensive Cortical Infarction”, Stroke 17:738–43 (1986) and/or Liu et al., “Polyethylene Glycol-conjugated Superoxide Dismutase and Catalase Reduce Ischemic Brain Injury”, Am. J. Physiol. 256:H589–93 (1989), both of which are hereby incorporated by reference.
Specifically, bilateral CCA's were isolated, and loops made from polyethylene (PE-10) catheter were carefully passed around the CCA's for later remote occlusion. The incision made previously for placement of the laser doppler probe was extended to allow observation of the rostral end of the zygomatic arch at the fusion point using a dental drill, and the dura mater overlying the MCA was cut. […] The burr hole was covered with a small piece of Gelform, and the wound was sutured to maintain the brain temperature within the normal or near-normal range.
After 90 minutes of occlusion, the carotid loops were released, the tail arterial catheter was removed, and all of the wounds were sutured. Gentamicin sulfate (10 mg/ml) was topically applied to the wounds to prevent infection. […]
Two hours after MCA occlusion, the animals were given the same doses of the PARP inhibitor as in the pre-treatment. […] To avoid artifacts due to edema, the damaged area was calculated by subtracting the area of the normal tissue in the hemisphere ipsilateral to the stroke from the area of the hemisphere contralateral to the stroke, by the method of Swanson et al., “A Semiautomated Method for Measuring Brain Infarct Volume”, J. Cereb. […] The total volume of infarction was calculated by summation of the damaged volume of the brain slices.
With `O=C1NCCc2c(OCCCCN3CCCCC3)cccc21` [DPQ, 3,4-dihydro-5-[4-(1-piperidinyl)-butoxy]-1(2H)-isoquinolinone], the “damaged volume (infarct volume)” value is listed as 106.7±23.2 mm^3.

The same assay, now with this note: 10 mg/kg i.p. 2 h before and 2 h after MCA occlusion; 24 h; mean±SD; control 165.2±34.0.
In the case of `O=C1NCCc2c(OCCCCN3CCCCC3)cccc21` [DPQ, 3,4-dihydro-5-[4-(1-piperidinyl)-butoxy]-1(2H)-isoquinolinone], the “damaged volume (infarct volume)” value stood at 76.4±16.8 mm^3.

The same assay, now with this note: 20 mg/kg i.p. 2 h before and 2 h after MCA occlusion; 24 h; mean±SD; control 165.2±34.0.
Consider `O=C1NCCc2c(OCCCCN3CCCCC3)cccc21` [DPQ, 3,4-dihydro-5-[4-(1-piperidinyl)-butoxy]-1(2H)-isoquinolinone], for which the “damaged volume (infarct volume)” value stood at 110.2±42.0 mm^3.

The same assay, now with this note: 40 mg/kg i.p. 2 h before and 2 h after MCA occlusion; 24 h; mean±SD; not significant vs control.
Consider `O=C1NCCc2c(OCCCCN3CCCCC3)cccc21` [DPQ, 3,4-dihydro-5-[4-(1-piperidinyl)-butoxy]-1(2H)-isoquinolinone], for which the “damaged volume (infarct volume)” value is 135.6±44.8 mm^3.

The test system of another assay is MSU crystal induced neutrophil migration. Put plainly: MSU crystal-induced neutrophil recruitment (peritonitis, gout model). It counts as in vivo, Swiss albino mice. The note with it: 45 mg/kg i.p.; 6 h. The procedure: Male outbread Swiss albino mice (20–22 g body weight) were purchased from Banton and Kingsman (T.O. stain; Hull, Humberside) and maintained on a standard chow pellet diet with tap water ad libitum and a 12:00 h light/dark cycle. All animals were housed for 1 week prior to experimentation to allow body weight to reach 28–30 g.
1,11b-dihydrobenzopyrano[4,3,2-de]isoquinolin-1-one, as an example PARP inhibitor, was dissolved in 100% DMSO at room temperature at a concentration of 45 mg in 2 ml. The compound was then injected into the peritoneal cavity, so as each mouse received a single dose corresponding to 45 mg/2 ml/kg (e.g. 60 μl for a mouse of 30 g). Control mice received DMSO at 2 ml/kg i.p. A third group of mice which were left untreated were added to control for potential effects of the vehicle. The study involved therefore, the following three groups: group A, untreated mice, n=6, group B, DMSO-treated mice, n=8, and group C, mice treated with 1,11b-dihydrobenzopyrano[4,3,2-de]isoquinolin-1-one, n=8.
MSU crystal-induced neutrophil recruitment was tested as follows. In all cases, mice were treated 1 h after the treatment noted above, with MSU crystals. A homogenous suspension of MSU crystals was obtained by a 30 min rotation. Peritonitis was induced by injection of 3 mg MSU crystals in 0.5 ml PBS (0.1 M, pH 7.4), and the recruitment of neutrophils into the cavity evaluated at the 6 h time point (Getting et al., 1997, J. Pharmacol. Exp. Ther. 283: 123–130). […]
An aliquot (100 μl) of the lavage fluid was then diluted 1:10 in Turk's solution (0.01% crystal violet in 3% acetic acid). The samples were then vortexed and 10 μl of the stained cell solution were placed in a Neubauer haematocymometer and neutrophils numbers counted using a light microscope (Olympus B061). […]
Data are shown for single mice, and also shown as mean±S.E. of (n) mice per group. Statistical differences were determined by ANOVA, plus Bonferroni test A P value<0.05 was taken as significant.
In the case of `O=C1N=Cc2cccc3c2C1c1ccccc1O3` (stereo not shown) [1,11b-dihydrobenzopyrano[4,3,2-de]isoquinolin-1-one], the “inhibition of cell influx vs. the vehicle group” value is 55%.

Still in this assay, the particulars now being: group C, 45 mg/kg i.p. 1 h prior to 3 mg MSU crystals; 6 h time-point; one value per mouse; 45 mg/kg.
Turning to `O=C1N=Cc2cccc3c2C1c1ccccc1O3` (stereo not shown) [1,11b-dihydrobenzopyrano[4,3,2-de]isoquinolin-1-one], the “Neutrophil Numbers (single mice)” value was 2.4 10^6 per mouse (2×) and 3.0 10^6 per mouse (2×) and 2.7 10^6 per mouse and 2.1 10^6 per mouse (2×) and 5.1 10^6 per mouse.

Staying with this assay, now noted: group C, 45 mg/kg i.p.; MSU crystals (3 mg); 6 h; mean ± S.E. of (n) mice; vehicle 6.30 ± 0.33.
As for `O=C1N=Cc2cccc3c2C1c1ccccc1O3` (stereo not shown) [1,11b-dihydrobenzopyrano[4,3,2-de]isoquinolin-1-one], the “Neutrophils (10^6 per mouse)” value is 2.85 ± 0.34 (8)* 10^6 per mouse.

The subject of a further assay is infarct size caused by ischemia and reperfusion of the heart.
Experiment: not given
The note with it: rabbits, 1 mg/kg; cited from earlier work.
For the compound `Oc1cccc2c(O)nccc12` [1,5-dihydroxyisoquinoline], the “reduction in infarct size” value was 38–48%.

Staying with this assay, now noted: rabbits, single injection 10 mg/kg, one minute before occlusion or before reperfusion; cited from earlier work.
For `NC(=O)c1cccc(N)c1` [3-amino-benzamide], the “reduction in infarct size in the heart” value was 32–42%.

Another assay concerns the target PARP (Homo sapiens, UniProt P09874).
Experiment: not given
The note with it: read-out: IC50 for inhibiting PARP; reported by Suto et al.; cited from earlier work.
As to `O=C1NCCc2c(OCCCCN3CCCCC3)cccc21` [3,4-dihydro-5-[4-(1-piperidinyl)butoxy]-1(2H)-isoquinolinone], the IC50 is 40 nM.
